Reference: ChEMBL document CHEMBL1201862, “PubChem BioAssay data set” (2004)
Calls of active or inactive are those of the source.

Tests used:
[1] = target: FAD-linked sulfhydryl oxidase ALR (Homo sapiens, UniProt P55789); experiment: inhibitors of human ALR sulfhydryl oxidase, dose response, biochemical, H2O2 detection, luminescence, cherry-pick (AID 493248)
[2] = target: T1, Rac GTPase-activating protein 1 (Homo sapiens, UniProt Q9H0H5); experiment: MgcRacGAP GTPase-activating activity inhibitors, confirmation, biochemical, ADP Hunter fluorescence, primary and confirmatory (AID 624330); type: functional
T1 sequence (Q9H0H5 whole entry): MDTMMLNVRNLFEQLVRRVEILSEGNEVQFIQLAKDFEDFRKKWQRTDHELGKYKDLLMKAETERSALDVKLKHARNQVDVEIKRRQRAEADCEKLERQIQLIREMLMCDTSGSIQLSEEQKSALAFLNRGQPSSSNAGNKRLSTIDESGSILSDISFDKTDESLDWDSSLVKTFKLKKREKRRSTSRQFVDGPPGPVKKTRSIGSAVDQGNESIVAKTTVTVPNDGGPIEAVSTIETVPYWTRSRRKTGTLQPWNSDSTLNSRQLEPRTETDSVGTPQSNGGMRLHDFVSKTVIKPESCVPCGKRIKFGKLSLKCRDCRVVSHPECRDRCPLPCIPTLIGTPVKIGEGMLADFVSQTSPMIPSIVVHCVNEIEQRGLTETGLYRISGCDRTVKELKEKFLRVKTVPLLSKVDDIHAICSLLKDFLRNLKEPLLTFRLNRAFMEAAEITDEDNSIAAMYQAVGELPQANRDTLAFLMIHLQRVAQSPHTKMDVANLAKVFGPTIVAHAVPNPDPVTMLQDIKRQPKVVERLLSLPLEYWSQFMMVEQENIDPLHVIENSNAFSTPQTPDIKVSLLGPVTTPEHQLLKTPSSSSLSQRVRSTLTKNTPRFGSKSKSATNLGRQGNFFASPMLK

[3] = HEp-2 cell cytotoxicity, dose response, cytotoxicity control for RSV inhibitor project, HTS (AID 2410); type: functional; details: human respiratory syncytial virus
[4] = test system: Vero; experiment: cells; type: functional; details: Chlorocebus sabaeus
[5] = target: Large T antigen (Simian virus 40, UniProt P03070); type: functional, Betapolyomavirus macacae;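 further: Confirmatory-stage PubChem screen for compounds that inhibit SV40 T antigen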
Chain of Large T antigen (P03070 whole entry): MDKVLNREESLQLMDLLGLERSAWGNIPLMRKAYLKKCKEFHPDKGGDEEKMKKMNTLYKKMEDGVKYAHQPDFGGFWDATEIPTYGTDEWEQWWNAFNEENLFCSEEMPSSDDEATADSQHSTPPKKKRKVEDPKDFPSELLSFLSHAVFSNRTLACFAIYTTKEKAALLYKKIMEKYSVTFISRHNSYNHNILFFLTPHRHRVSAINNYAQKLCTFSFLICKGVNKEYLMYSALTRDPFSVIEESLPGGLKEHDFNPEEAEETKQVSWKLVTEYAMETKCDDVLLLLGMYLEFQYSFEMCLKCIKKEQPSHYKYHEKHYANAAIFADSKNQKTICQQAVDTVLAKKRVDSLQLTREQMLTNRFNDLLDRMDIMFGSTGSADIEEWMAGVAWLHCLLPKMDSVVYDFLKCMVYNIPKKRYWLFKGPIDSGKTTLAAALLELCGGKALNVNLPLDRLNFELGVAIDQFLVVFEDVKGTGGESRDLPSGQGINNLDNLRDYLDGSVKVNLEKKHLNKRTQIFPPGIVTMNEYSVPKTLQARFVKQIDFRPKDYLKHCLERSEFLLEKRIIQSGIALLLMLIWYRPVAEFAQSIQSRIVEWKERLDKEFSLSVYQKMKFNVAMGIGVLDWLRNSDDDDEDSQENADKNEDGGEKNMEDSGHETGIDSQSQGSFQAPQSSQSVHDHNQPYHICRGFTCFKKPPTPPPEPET

[6] = microbe, parasite or virus in culture; type: functional; details: Mycobacterium tuberculosis
[7] = target: T2, Ubiquitin-conjugating enzyme E2 N (Homo sapiens, UniProt P61088); type: functional;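 further: Dose-response confirmation in a TR-FRET assay detecting UBC13-driven polyubiquitin chain formation, inhibition measured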
T2 sequence (P61088 whole entry): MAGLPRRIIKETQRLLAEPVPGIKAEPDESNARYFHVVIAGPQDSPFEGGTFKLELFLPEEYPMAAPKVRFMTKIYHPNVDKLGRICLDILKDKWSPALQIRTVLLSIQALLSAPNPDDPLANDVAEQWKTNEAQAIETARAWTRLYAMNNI

[8] = Luminescence Cell-Based Dose Retest to Confirm Inhibitors of Cancer Stem Cells. [Related pubchem assays (depositor defined):AID2717, AID2721]; type: functional; details: Homo sapiens
[9] = test system: Streptococcus sp. 'group A'; experiment: growth inhibition of control SK(-) GAS strain, dose response, counter-screen for streptokinase expression inhibitor project, luminescence, kanamycin, BacTiterGlo, confirmation (AID 1900); type: functional, organism-based
[10] = target: T3, Streptokinase A (Streptococcus pyogenes serotype M1, UniProt P10520); experiment: S. pyogenes streptokinase expression inhibitors, potency, dose response, plasminogen activation absorbance, OD405 (AID 1914); type: functional, Streptococcus pyogenes M1 GAS;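 further: secreted streptokinase activity via plasminogen activation per viability signal from cell pellet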
T3 sequence (P10520 whole entry): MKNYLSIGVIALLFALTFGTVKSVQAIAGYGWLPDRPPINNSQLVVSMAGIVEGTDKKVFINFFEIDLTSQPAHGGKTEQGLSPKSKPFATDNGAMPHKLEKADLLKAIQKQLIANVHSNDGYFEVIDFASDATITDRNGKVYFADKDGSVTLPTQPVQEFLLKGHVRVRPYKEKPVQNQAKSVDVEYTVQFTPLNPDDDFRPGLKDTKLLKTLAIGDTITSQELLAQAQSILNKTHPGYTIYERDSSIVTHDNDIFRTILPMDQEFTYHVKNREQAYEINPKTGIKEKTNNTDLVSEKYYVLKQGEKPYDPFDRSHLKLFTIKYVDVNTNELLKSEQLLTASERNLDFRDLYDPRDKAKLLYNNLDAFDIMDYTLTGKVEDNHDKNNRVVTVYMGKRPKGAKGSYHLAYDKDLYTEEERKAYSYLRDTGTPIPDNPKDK

[11] = test system: Streptococcus; experiment: Group A Streptococcus viability loss, dose response, counter-screen for streptokinase expression inhibitor project, luminescence, BacTiterGlo (AID 1915); type: functional, organism-based;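 further: potency for reduction of bacterial viability or growth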
[12] = target: T4, Corticotropin-releasing factor receptor 2/Corticotropin-releasing factor-binding protein (Homo sapiens, UniProt P24387+Q13324); experiment: Dose Response confirmation of uHTS hits for small molecule antagonists of the CRF-binding protein and CRF-R2 receptor complex.; type: functional; details: read-out: IC50_Mean
T4 sequence (Q13324 whole entry): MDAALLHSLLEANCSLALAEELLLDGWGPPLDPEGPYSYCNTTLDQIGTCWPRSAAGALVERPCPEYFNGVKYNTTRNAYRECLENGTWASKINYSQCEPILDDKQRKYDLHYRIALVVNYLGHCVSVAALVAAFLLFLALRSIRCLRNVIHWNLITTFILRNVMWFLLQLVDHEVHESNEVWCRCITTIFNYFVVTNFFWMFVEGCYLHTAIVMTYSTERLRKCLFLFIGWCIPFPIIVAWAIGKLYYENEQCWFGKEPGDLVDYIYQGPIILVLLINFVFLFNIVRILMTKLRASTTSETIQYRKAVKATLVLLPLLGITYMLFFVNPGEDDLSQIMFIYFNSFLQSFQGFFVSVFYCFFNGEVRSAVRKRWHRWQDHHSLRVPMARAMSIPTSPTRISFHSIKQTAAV
T4 sequence (P24387 whole entry): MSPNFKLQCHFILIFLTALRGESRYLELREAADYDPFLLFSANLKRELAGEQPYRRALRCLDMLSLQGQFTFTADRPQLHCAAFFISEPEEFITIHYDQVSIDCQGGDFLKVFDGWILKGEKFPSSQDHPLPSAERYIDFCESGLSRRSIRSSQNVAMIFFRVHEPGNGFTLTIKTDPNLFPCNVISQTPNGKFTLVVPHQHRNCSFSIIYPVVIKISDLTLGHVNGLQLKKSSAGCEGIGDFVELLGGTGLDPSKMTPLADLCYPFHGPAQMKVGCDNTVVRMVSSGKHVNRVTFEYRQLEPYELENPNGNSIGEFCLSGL

[13] = target: T4, Corticotropin-releasing factor receptor 2/Corticotropin-releasing factor-binding protein; experiment: activators of CRF receptor 2 with binding protein – uHTS hits, confirmation (AID 602473); type: functional; details: read-out: EC50_Mean
[14] = target: T5, Replicative DNA helicase DnaB (Mycobacterium tuberculosis, UniProt P9WMR3); experiment: DnaB intein splicing inhibitors, dose response, biochemical, cell-free fluorescence (AID 449749); type: functional
T5 sequence (P9WMR3 whole entry): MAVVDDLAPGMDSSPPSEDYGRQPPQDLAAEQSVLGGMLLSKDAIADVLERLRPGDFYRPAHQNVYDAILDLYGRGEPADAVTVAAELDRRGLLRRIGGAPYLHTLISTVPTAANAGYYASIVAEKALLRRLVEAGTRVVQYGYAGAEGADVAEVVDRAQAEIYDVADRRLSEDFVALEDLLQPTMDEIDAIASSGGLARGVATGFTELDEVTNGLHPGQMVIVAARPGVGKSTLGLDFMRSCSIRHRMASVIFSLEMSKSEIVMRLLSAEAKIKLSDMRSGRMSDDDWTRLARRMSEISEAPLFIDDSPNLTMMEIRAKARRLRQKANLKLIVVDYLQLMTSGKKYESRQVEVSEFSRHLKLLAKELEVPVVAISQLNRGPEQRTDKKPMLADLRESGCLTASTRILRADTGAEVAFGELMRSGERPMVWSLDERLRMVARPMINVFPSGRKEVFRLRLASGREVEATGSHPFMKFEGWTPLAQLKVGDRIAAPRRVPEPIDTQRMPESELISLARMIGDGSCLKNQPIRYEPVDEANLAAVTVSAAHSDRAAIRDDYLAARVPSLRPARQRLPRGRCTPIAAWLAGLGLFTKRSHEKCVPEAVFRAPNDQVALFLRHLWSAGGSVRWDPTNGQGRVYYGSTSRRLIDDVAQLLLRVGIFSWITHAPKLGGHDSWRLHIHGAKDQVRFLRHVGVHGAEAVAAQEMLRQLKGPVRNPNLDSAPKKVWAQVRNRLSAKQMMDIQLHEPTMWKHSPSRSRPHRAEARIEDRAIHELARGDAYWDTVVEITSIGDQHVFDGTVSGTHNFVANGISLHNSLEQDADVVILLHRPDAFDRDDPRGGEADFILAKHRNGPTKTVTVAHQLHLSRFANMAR

[15] = target: T6, Protein RecA (Mycobacterium tuberculosis, UniProt P9WHJ3); experiment: Fluorescence Cell-Free Homogeneous Dose Retest to Identify Inhibitors of RecA-Intein Splicing Activity. [Related pubchem assays (depositor defined):AID2097, AID2223, AID489010, AID492950]; type: functional
T6 sequence (P9WHJ3 whole entry): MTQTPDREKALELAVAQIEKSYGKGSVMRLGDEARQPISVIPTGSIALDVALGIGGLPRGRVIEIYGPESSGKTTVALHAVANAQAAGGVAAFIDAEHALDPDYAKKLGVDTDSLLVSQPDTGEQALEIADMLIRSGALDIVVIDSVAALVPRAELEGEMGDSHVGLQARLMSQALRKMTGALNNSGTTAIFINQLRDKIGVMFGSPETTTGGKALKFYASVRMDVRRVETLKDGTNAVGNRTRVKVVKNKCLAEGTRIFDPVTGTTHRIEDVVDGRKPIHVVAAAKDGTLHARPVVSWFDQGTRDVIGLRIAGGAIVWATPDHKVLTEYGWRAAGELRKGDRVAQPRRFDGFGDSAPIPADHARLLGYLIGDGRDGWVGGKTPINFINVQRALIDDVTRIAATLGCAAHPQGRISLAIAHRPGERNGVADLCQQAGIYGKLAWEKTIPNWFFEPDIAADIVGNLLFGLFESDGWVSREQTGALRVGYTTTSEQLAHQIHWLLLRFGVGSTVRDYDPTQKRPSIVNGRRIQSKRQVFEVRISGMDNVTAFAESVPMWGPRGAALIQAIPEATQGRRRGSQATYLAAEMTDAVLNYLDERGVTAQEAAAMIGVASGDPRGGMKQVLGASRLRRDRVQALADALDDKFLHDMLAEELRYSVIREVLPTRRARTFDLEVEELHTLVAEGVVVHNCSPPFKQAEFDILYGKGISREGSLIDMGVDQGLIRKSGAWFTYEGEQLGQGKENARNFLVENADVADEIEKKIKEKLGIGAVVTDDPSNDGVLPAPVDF

[16] = Luminescence Cell-Based Dose Confirmation HTS to Identify Activators of 5'UTR Stem-Loop Driven Alpha-Synuclein mRNA Translation in H4 Neuroglioblastoma Cells. [Related pubchem assays: 1829 (Project Summary), 1814 (Primary HTS)]; type: functional
[17] = Luminescence Cell-Based Dose Response HTS to Identify Activators of Luciferase Translation or Activity in H4 […] Cells. [Related pubchem assays: 1829 (Project Summary), 1814 (Primary HTS)]; type: functional
[18] = test system: H4; experiment: Luminescence Cell-Based Dose Response HTS to Identify Activators of 5'UTR Stem-Loop Driven Prion Protein mRNA Translation in H4 Neuroglioblastoma Cells. [Related pubchem assays: 1829 (Project Summary), 1814 (Primary HTS)]; type: functional; details: Homo sapiens
[19] = NIH-3T3 fibroblast cytotoxicity, dose response, cytotoxicity control, cell-based, fluorescence, Alamar Blue, secondary assay (AID 2327); type: functional;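 further: NIH-3T3 mouse fibroblasts cultured with fluconazole at 8 µg/mL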
[20] = C. albicans growth with fluconazole, confirmation, fluorescence, retest (AID 2467); type: functional, cell-based

Chain of FAD-linked sulfhydryl oxidase ALR (P55789 whole entry): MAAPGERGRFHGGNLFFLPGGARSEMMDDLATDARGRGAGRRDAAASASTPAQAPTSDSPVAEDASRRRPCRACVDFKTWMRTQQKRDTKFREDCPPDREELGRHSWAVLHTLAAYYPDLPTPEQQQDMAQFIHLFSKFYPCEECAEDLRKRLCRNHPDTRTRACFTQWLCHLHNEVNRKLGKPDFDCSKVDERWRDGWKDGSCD

SMILES: COc1ccc2c(/C=N/Nc3ccc(C(=O)O)cc3)c[nH]c2c1
- AC50 [1]: 1.9 µM (active)
- IC50 [2]: 54.9 µM (active)

SMILES: Cc1ccc2cc(/C=C/C(=O)c3ccco3)c(Cl)nc2c1
- CC50 [3]: 21.2 µM (active)
- CC50 [4]: 14.3 µM (active)

SMILES: COc1cc(/C=N/NC2=NCCCCC2)ccc1O
- IC50 [5]: 6.11 µM (active)
- AC50 [1]: 0.028 µM (active)
- IC50 [2]: 22.5 µM (active)

SMILES: COc1cc2c(cc1OC)C1(Nc3c-2c(-c2ccccc2)nn3-c2ccccc2)C(=O)Nc2ccccc21 (configuration not stated)
- CC50 [6]: 10.4 µM (active)

SMILES: CCOc1ccc(N(C(=O)c2snc(C(N)=O)c2N)C(C(=O)NC2CCCC2)C(C)C)cc1 (configuration not stated)
- IC50 [7]: > 20 µM (inactive)

SMILES: Oc1c(Cl)cc(Cl)cc1CNc1ccc(Br)cn1
- AC50 [8]: 2.56 µM (active)
- AC50 [1]: 5.33 µM (active)

SMILES: C=CCn1c(Cc2cccs2)nnc1SCC(=O)Nc1ccc(C(=O)OCC)cc1
- CC50 [6]: > 40 µM (active)

SMILES: Cc1ccc(N=Nc2ccc(O)c(P(=O)(c3ccccc3)c3ccccc3)c2)cc1
- EC50 [9]: 3.58 µM (active)
- EC50 [10]: > 150 µM (not active)
- EC50 [11]: 110 µM (active)
- CC50 [4]: > 25 µM (active)
- IC50 [12]: > 47.1 µM (inactive)
- EC50 [13]: > 53 µM (inactive)

SMILES: O=C(CN1C(=O)S/C(=C\C=C\c2ccccc2)C1=O)Nc1ccc(C(=O)O)cc1
- AC50 [14]: 177 µM (active)
- EC50 [15]: > 380 µM (inactive)

SMILES: Cc1nc2ccccc2c2c1C(=O)N(C)C2=O
- AC50 [14]: 4.71 µM (active)
- EC50 [15]: 0.794 µM (active)

SMILES: CCOc1ccccc1C1N=C(c2ccc(OC)cc2)CC(c2ccccc2O)N1 (configuration not stated)
- EC50 [16]: 14.2 µM (active)
- EC50 [17]: 14.3 µM (active)
- EC50 [18]: 12.3 µM (active)
- CC50 [4]: > 25 µM (active)

SMILES: O=C(C(=O)N1CCOCC1)c1cn(Cc2ccccc2)c2ccccc12
- IC50 [7]: > 20 µM (inactive)

SMILES: Cc1ccc(C2=CSC3=NNC4(CCCCC4)NN23)cc1
- EC50 [19]: 22.3 µM (inconclusive)
- EC50 [16]: 9.71 µM (active)
- EC50 [18]: 12.4 µM (active)
- EC50 [20]: 1.76 µM (active)
- AC50 [1]: 1.86 µM (active)

SMILES: COc1cc(C(c2c(C)n[nH]c2O)c2c(C)n[nH]c2O)cc(Cl)c1O
- AC50 [14]: 2.6 µM (active)
- EC50 [15]: 0.453 µM (active)

SMILES: N#Cc1c(NC(=O)CSc2nc3ccccc3c(=O)n2Cc2ccco2)sc2c1CCCC2
- CC50 [4]: > 25 µM (active)

SMILES: COc1cc(/C=N/NC(=O)CCN2CCCCC2)ccc1O
- AC50 [1]: 3.05 µM (active)
- IC50 [2]: 32.1 µM (active)
